Reference: patent US20240398813A1, “PHARMACEUTICAL COMPOSITION FOR PREVENTING OR TREATING OVERACTIVE BLADDER” (GWANGJU INSTITUTE OF SCIENCE AND TECHNOLOGY, priority 2021, published 2024)
pEC50: −log10 of the molar value.

Columns and labels:
[1] = biological target: T1, hyperactive mutant BKCa channels (hSlo G803D/N806K) stably expressed in AD 293 cells (Homo sapiens, UniProt Q12791, G856D/N859K); test: Cell-based fluorescence assay (FluxOR Potassium Ion Channel Assay) of BKCa channel activation; design: key to Channel activity increase for 80 s (ΔRFU) at 6 μM: ratio of ΔRFU (RFU at 100 s − 20 s) to the same ΔRFU for vehicle
T1 construct: expressed in transfected cells
In short: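 AD 293 cells stably expressing hSlo G803D/N806K were exposed to compound in assay buffer for 15 min, then read by FluxOR thallium-flux fluorescence (ex 485/em 528 nm) every 2 s for 120 s. Initial rate vi from 20–24 s; ΔRFU from 20–100 s, normalised to vehicle and measured at 6 μM; apparent EC50 from dose-response fit.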

[2] = biological target: T2, BKCa channels co-expressed with the β4 subunits (rSlo α + KCNMB4) (Rattus norvegicus, UniProt Q62976); test: Macroscopic current recording, BKCa channels co-expressed with β4 subunits in Xenopus oocytes; type: cell-based; conditions: 10 μM
T2 construct: expressed in transfected cells; host or cells: Xenopus laevis oocytes, cRNA alpha:beta 1:12
Description: The complete coding sequence (CDS) of each of rat KCNMA (rSlo α) (GenBank AF135265.1), KCNMB1 (rSlo 01) (GenBank FJ154955.1) and KCNMB4 (rSlo β4) (GenBank AY028605) was subcloned into pNBC2.0 or pNBC2.0. These vectors were designed to be expressed in Xenopus oocytes (Ha, T. S., Lim, H. H., Lee, G. E., Kim, Y. C., & Park, C. S. (2006). Electrophysiological characterization of benzofuroindole-induced potentiation of large-conductance Ca2+-activated K+ channels. Mol Pharmacol, 69(3), 1007-1014). The plasmid was linearized by NotI and complementary RNA (cRNA) was synthesized using the Ambion T7 mMESSAGE mMACHINE kit (Invitrogen, Carlsbad, CA, USA) according to the manufacturer's instructions. Xenopus laevis (KXRCR000001) was obtained from the Korea Xenopus Resource Center for Research (Chuncheon-si, Gangwon-do, Korea). Stage V-VI oocytes were surgically extracted from the ovarian lobes of X. laevis. A follicular cell layer was removed by culturing in Ca^2+-free oocyte Ringer's medium (86 mM NaCl, 1.5 mM KCl, 2 mM MgCl2 and 10 mM HEPES, pH 7.6) containing collagenase for 1.5 hours at room temperature. Oocytes without follicular layer were washed with ND-96 medium (96 mM NaCl, 2 mM KCl, 1.8 mM CaCl2), 1 mM MgCl2, 5 mM HEPES, […] gentamicin, pH 7.6). The prepared oocytes were stabilized overnight at 18° C. cRNA was injected into each oocyte (50 ng per oocyte) using a microdispenser (Drummond Scientific, Broomall, PA, USA). For co-expression of the β subunits, cRNA was mixed at a molar ratio of 1:12 (α:β) to induce sufficient co-assembly of the R subunits. After injection of cRNA, the oocytes were cultured in ND-96 medium for 1-3 days at 18° C. Before recording macroscopic currents, vitelline membranes of the oocytes were completely removed using fine forceps.
All macroscopic current recordings in the BKCa channels were performed using the gigaohm-seal patch-clamp method in an outside-out configuration (Ha et al., 2006). A patch pipette was made of borosilicate glass (WPI, Sarasota, FL, USA) and fire-polished by a resistance of 3-5 MQ. […]

T1 sequence (Q12791 whole entry G856D/N859K): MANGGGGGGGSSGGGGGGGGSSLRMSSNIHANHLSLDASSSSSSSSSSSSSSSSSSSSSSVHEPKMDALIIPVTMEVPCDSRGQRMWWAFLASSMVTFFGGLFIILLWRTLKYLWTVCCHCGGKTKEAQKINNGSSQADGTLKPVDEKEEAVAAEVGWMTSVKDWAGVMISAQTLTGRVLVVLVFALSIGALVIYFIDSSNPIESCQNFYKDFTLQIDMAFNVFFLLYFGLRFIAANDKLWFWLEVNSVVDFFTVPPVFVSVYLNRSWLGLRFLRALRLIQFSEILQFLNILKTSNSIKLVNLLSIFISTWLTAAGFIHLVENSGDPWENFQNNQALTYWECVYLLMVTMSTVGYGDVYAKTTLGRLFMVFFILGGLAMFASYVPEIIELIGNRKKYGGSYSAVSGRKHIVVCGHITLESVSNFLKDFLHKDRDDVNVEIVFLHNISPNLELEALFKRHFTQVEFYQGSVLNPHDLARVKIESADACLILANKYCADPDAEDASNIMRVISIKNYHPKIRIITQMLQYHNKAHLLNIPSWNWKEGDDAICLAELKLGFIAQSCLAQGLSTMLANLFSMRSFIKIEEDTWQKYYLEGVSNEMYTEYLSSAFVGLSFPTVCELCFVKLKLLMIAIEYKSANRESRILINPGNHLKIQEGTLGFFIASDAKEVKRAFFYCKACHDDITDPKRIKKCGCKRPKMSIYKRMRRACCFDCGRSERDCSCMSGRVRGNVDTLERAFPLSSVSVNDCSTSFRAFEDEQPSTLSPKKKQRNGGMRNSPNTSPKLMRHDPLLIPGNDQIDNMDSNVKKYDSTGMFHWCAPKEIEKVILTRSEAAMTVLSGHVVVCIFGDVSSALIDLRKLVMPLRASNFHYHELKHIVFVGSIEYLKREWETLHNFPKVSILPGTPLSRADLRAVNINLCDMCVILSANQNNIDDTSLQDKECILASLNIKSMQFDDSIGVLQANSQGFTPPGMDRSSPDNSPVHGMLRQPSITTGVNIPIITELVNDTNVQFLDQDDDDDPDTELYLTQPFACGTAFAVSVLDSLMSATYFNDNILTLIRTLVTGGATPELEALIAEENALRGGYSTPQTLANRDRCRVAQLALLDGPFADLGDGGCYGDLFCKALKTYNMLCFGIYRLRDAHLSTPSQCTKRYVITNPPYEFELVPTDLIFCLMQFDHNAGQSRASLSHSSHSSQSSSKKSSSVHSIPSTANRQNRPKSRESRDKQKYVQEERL
T2 sequence (Q62976 whole entry): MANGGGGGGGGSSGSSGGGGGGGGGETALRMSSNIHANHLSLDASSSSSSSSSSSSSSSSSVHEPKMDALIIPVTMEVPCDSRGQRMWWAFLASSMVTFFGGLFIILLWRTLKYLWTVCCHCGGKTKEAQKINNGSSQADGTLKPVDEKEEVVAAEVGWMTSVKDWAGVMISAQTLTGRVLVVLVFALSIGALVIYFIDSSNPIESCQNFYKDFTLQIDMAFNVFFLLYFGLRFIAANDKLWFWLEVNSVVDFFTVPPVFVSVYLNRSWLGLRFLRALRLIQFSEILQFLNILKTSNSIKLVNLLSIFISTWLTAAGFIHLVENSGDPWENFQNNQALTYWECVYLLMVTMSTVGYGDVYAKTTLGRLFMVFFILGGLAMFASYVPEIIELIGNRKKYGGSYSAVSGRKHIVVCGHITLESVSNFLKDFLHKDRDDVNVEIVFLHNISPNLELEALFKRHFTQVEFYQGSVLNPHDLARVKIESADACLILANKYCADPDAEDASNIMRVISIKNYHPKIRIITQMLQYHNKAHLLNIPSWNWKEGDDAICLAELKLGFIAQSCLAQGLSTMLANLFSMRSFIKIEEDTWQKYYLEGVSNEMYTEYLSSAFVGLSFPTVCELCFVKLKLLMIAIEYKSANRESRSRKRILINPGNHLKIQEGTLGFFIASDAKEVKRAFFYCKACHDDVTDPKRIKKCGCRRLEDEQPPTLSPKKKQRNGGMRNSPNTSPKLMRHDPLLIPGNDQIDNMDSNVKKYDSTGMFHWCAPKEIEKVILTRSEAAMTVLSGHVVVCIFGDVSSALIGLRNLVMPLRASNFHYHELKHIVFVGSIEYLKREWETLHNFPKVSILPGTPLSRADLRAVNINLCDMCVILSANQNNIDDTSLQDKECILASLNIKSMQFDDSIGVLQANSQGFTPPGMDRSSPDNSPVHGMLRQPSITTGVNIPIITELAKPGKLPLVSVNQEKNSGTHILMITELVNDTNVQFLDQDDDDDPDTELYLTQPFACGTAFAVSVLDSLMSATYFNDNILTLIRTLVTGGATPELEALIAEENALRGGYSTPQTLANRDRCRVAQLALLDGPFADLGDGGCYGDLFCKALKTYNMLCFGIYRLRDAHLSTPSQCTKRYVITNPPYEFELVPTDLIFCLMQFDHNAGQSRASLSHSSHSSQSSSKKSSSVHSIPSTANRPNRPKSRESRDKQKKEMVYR
T2 sequence (Q9ESK8 whole entry partner): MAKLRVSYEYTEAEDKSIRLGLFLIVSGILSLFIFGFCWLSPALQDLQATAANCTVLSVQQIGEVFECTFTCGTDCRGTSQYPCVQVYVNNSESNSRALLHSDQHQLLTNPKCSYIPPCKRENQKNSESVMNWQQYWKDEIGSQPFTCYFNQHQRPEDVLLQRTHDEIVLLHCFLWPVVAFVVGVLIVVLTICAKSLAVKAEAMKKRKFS

Cc1cccc(NC(=O)c2sc(=S)n3c2[nH]c(=O)c2cc(Br)ccc23)c1 [TTQC-1, 7-bromo-5-oxo-1-thioxo-N-(m-tolyl)-4,5-dihydro-1H-thiazolo[3,4-a]quinazoline-3-carboxamide]
increase in fluorescence induced by TTQC-1 in the presence of BKCa channel inhibitors ([1]; 2 μM TTQC-1, 1 μM paxillin and 0.1 μM iberiotoxin): removed | activation effect on the BKCa channel relative to LDD175 ([1]; 3 μM): 1.6 times | activation effect on the BKCa channels at a single concentration ([1]; 3 μM): most potent effect | effect (ΔRFU) relative to vehicle ([1]; 6 μM): 4.98±0.05 times | Initial velocity of channel activation for 4 s (vi) at 6 μM ([1]; 6 μM, first 4 s after channel stimulation): 9.77 s⁻¹ | Channel activity increase for 80 s (ΔRFU) at 6 μM ([1]; 6 μM, normalized by vehicle): 4.98 | concentration at which the Tl+ flux effect was saturated ([1]; 0.6-10 μM tested): 6 µM | TTQC-1 activation effect in the presence of 0.1 μM iberiotoxin ([1]; TTQC-1 at concentrations above 4 μM): activated the BKCa channels | TTQC-1 activation effect in the presence of 0.1 μM iberiotoxin ([1]; TTQC-1 at concentrations below 2 μM): eliminated | pEC50 ([1]; fit of dose-response curve of initial rates, read-out: Apparent EC50 based on vi): 5.24 | effect on τ activation [2]: did not significantly affect | increase of τ deactivation ([2]; at 170 mV): 3.7 times | shift of G-V curve to the left ([2]; β4 co-expressed): 7.12±0.65 mV
